Data on 1 molecule can be found in article PMC5349910, “Discovery of BPR1K871, a quinazoline based, multi-kinase inhibitor for the treatment of AML and solid tumors: Rational design, synthesis, in vitro and in vivo evaluation” (Oncotarget, 2016).

pEC50, pIC50: −log10 of the molar value.

Data set [1] can be described thus: Microsomal stability assay, mouse. The data set is classed as in vitro ADME.
Data set [2] has as its target KIT^A829P (Homo sapiens, UniProt P10721, A829P). As to the kind of experiment: KINOMEScan, KIT A829P. Particulars: read-out: KIT^A829P % control.
Data set [3] addresses T1, hERG (Homo sapiens, UniProt Q12809).
T1 construct: Ricerca Biosciences, LLC
As to the kind of experiment: hERG inhibition assay. Particulars: at 10 μM; performed by Ricerca Biosciences. The procedure:
Considering the in vivo efficacy in different cancer models, particularly in pancreatic cancer, it is worthwhile to further investigate BPR1K871; pancreatic and liver cancer are the most fatal of cancers and 5-year relative survival for patients with pancreatic cancer is reported to be just 8% [43, 44].
[45] hERG inhibition was performed by Ricerca Biosciences, LLC

Data set [4] is described as follows: In vivo pharmacokinetics evaluation in rats. Particulars: rat. More on the design: species or system Male Sprague-Dawley rats. The procedure: This study was approved by Institutional Animal Care and Use Committee of National Health Research Institutes. A solution of test compound (10 mg/mL) was prepared by dissolving appropriate amount of compound in a mixture of DMA/PEG400 (20/80, v/v). Male Sprague-Dawley rats, weighing 250–350 g each (8–10 weeks old), were obtained from BioLASCO, Ilan, Taiwan. […] The volume of dosing solution administered was adjusted according to the body weight recorded before dose administration. At 0 (prior to dosing), 2, 5, 15, and 30 min and at 1, 2, 4, 6, 8, and 24 h after dosing, a blood sample (∼150 μL) was collected from each animal via the jugular-vein cannula and stored in ice (0–4°C). Plasma was separated from the blood by centrifugation (14000 g for 15 min at 4°C in a Beckman model AllegraTM 6R centrifuge) and stored in a freezer (–60°C). All samples were analyzed for the test compound by LC-MS/MS (ABI3000). Data were acquired via multiple reactions monitoring. Plasma concentration data were analyzed with standard noncompartmental method with WinNonLin software program (version 1.1, Pharsight Corporation, CA).

For data set [5], the system named is MOLM-13 cells. Kind of data set: MTS cell viability assay, MOLM-13. Format: cell-based, human. Particulars: Homo sapiens, MOLM-13, 72 h, MTS, 72 h; AML-FLT3-ITD (heterozygous); supplement values ± SEM; read-out: MOLM-13 EC50. The method, then:
The MTS cell viability assay was conducted as previously described. The MOLM-13 human leukemia cell line was obtained from the German Resource Centre for Biological Material (DSMZ, Braunschweig, Germany); the MV4-11 cell line was purchased from the American Type Culture Collection (ATCC, Manassas, VA, USA). […] To determine cell viability after drug treatment, assay for MOLM-13 and MV4-11 was performed by seeding 10000 cells per well in a 96-well culture plate. […] After 16 h, cells were then treated with vehicle or various concentrations of compound in medium for 72 h. Viable cells were quantified using the MTS method (Promega, Madison, WI, USA) according to the manufacturer's recommended protocol. Results were determined by measuring the absorbance at 490 nm using a plate reader (Victor2; PerkinElmer, Shelton, CT, USA).

Data set [6] addresses AURKB (Homo sapiens, UniProt Q96GD4). Kind of data set: AURKB inhibition assay (Kinase-Glo). Format: biochemical. More on the design: full length His-tagged Aurora-B (residues M1∼A344); His; purchased Invitrogen PV6130. Particulars: mean of at least two independent experiments. The method, then: AURKB assay was conducted as previously described. Briefly, the recombinant full length His-tagged Aurora-B (residues M1∼A344) was purchased from Invitrogen (Catalog number: PV6130). The kinase assay was carried out in 96-well plates with the tested compound in reaction solution (50 mM Tris-HCl pH 7.4, 10 mM NaCl, 10 mM MgCl2, 0.01% BSA, 5 mM ATP, 1 mM DTT and 15 mM tetra(LRRASLG) peptide, and 40 ng recombinant Aurora-B) at 30°C for 180 min.
Following incubation, 50 μL Kinase-Glo Plus Reagent (Promega, Madison, WI, USA) was added, and the mixture was incubated at 25°C for 20 min. A 70 μL aliquot of each reaction mixture was transferred to a black microliter plate, and luminescence was measured on a Wallac Vector 1420 multilabel counter (PerkinElmer, Shelton, CT, USA).
On the technique in general: Kinase-Glo measures the ATP left after a reaction by luminescence.

Data set [7] can be described thus: Microsomal stability assay, human. The data set is classed as in vitro ADME.
The subject of data set [8] is RS4-11 cells. Kind of data set: Anti-proliferative activity, RS4-11. Format: cell-based. Particulars: Homo sapiens, RS4-11; ALL-wt-FLT3 (homozygous); supplement values ± SEM; read-out: RS4-11 EC50.
For data set [9], the target named is AURKC (Homo sapiens, UniProt Q9UQB9). As to the kind of experiment: KINOMEScan, AURKC. The settings on record: read-out: AURKC % control.
The target of data set [10] is FLT3 (Homo sapiens, UniProt P36888). As to the kind of experiment: KINOMEScan, FLT3. The settings on record: read-out: FLT3 % control.
Data set [11] deals with H2228 cells. Kind of data set: Anti-proliferative activity, H2228. Format: cell-based. Particulars: Homo sapiens, NCI-H2228; NSCLC-ALK; supplement values ± SEM; read-out: H2228 EC50.
Data set [12] concerns the target RET^M918T (Homo sapiens, UniProt P07949, M918T). Kind of data set: KINOMEScan, RET M918T. Particulars: read-out: RET^M918T % control.
Data set [13] concerns the target CYP 1A2 (Homo sapiens, UniProt P05177). As to the kind of experiment: CYP inhibition assay, CYP 1A2. Format: in vitro ADME.
The mark [14] stands for this setting: male, Sprague-Dawley, plasma, iv, 5 mg/kg.

Chain of AURKC (Q9UQB9 whole entry): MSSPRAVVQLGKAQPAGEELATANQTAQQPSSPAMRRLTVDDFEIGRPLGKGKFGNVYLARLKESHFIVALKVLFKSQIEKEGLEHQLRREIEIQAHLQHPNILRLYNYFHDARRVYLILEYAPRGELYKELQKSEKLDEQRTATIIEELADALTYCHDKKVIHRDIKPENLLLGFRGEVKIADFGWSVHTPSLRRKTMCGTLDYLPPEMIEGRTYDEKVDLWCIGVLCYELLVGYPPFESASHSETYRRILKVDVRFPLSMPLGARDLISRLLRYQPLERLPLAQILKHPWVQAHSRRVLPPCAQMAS
Chain of FLT3 (P36888 27-993): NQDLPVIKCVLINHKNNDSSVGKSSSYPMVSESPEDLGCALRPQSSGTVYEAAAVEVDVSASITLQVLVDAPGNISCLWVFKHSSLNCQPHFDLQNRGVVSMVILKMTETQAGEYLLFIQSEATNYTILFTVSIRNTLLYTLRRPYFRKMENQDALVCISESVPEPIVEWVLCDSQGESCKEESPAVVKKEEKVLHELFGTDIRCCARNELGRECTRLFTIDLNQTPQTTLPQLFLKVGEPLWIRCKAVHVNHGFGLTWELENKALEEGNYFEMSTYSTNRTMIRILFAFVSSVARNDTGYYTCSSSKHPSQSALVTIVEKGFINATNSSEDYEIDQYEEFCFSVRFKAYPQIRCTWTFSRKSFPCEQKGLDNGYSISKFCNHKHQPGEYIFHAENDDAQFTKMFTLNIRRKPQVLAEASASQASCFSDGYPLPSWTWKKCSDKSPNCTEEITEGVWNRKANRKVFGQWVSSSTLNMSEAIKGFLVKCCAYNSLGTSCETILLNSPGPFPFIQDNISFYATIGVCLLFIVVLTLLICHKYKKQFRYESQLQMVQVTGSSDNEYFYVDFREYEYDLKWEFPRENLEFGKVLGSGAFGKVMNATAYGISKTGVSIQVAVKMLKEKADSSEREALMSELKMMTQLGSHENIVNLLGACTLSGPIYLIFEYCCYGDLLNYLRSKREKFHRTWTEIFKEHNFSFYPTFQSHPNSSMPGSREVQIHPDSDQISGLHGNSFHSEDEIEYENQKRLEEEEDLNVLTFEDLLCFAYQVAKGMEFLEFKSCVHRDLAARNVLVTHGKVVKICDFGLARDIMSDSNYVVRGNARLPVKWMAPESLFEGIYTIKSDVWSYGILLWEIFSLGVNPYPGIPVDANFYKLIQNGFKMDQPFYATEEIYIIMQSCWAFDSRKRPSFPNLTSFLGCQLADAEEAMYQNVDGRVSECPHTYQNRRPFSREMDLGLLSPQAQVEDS
T1 sequence (Q12809 whole entry): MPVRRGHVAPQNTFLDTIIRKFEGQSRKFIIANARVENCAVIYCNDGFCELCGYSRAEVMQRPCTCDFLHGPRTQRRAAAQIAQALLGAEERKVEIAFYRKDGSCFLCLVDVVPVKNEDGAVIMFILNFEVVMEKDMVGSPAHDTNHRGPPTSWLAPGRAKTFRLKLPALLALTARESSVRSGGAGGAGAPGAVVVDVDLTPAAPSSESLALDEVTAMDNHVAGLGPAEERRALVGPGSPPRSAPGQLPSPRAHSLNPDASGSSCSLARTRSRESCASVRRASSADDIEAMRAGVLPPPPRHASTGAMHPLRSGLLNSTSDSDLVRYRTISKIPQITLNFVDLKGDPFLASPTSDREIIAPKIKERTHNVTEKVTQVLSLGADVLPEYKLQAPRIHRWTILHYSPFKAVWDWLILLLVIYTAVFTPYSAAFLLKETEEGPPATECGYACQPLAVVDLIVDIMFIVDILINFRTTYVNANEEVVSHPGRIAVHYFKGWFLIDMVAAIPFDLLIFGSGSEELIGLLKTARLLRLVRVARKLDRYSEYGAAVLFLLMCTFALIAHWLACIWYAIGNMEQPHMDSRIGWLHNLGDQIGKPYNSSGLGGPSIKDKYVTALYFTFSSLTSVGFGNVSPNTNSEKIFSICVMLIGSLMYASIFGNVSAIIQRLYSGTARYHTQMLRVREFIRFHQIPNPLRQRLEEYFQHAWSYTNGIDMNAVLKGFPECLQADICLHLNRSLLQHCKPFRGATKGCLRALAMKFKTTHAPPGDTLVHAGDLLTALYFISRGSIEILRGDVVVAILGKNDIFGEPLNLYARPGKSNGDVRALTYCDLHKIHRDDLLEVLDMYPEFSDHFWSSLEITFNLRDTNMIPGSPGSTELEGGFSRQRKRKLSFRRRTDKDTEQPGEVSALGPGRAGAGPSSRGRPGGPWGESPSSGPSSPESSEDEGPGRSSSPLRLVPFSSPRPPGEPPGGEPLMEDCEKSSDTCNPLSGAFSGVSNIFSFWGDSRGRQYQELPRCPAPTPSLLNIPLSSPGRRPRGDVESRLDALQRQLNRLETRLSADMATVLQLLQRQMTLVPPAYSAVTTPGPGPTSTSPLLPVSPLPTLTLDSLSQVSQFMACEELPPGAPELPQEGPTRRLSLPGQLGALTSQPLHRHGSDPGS
Chain of CYP 1A2 (P05177 whole entry): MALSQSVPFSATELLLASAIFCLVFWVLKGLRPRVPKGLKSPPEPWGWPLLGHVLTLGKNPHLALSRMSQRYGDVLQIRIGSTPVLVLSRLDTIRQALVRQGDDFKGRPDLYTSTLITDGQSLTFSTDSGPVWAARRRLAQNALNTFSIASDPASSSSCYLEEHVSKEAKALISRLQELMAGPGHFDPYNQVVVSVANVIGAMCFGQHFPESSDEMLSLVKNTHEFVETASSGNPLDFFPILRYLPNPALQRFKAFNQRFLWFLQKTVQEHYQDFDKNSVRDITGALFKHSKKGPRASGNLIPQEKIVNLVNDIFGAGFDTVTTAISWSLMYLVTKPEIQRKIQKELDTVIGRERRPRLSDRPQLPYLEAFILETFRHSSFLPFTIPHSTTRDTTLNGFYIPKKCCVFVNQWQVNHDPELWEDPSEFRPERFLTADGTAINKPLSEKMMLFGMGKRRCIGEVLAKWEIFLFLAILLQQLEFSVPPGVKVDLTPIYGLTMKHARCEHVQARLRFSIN
Chain of AURKB (Q96GD4 whole entry): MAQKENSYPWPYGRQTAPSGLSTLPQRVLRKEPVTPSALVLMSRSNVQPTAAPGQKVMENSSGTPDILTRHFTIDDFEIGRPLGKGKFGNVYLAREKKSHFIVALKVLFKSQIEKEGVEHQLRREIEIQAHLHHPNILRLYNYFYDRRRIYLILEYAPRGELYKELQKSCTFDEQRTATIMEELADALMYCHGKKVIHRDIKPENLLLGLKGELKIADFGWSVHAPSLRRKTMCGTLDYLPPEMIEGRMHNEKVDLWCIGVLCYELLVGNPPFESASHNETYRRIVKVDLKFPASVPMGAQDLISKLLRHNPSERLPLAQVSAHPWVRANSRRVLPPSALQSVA
Chain of RET^M918T (P07949 29-1114 M918T): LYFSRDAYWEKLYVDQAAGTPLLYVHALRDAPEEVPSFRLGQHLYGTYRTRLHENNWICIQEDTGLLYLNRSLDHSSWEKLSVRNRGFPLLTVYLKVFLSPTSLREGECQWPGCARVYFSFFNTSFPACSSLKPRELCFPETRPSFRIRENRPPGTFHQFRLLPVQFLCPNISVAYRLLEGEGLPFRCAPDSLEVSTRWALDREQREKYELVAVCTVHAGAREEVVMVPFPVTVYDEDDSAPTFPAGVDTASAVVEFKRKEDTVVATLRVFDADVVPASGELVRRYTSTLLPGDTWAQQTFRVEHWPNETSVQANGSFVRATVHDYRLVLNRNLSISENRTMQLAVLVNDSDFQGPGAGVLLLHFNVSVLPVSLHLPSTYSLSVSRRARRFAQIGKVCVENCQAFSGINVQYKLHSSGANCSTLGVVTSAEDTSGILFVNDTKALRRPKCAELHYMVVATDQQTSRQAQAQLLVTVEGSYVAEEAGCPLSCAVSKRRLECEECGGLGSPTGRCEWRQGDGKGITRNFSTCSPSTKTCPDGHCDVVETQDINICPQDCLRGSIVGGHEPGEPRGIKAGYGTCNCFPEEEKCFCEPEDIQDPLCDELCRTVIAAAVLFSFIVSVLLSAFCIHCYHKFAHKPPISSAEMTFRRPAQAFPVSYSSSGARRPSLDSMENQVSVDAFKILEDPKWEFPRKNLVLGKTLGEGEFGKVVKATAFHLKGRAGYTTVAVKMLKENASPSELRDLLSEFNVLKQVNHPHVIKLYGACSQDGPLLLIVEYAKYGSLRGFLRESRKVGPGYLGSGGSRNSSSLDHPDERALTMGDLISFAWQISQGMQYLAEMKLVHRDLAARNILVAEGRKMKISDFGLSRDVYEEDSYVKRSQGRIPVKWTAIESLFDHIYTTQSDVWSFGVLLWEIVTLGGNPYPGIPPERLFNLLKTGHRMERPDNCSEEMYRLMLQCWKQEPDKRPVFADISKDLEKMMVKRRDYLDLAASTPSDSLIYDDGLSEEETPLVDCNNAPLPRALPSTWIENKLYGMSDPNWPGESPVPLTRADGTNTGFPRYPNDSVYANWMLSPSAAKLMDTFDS

For the molecule `CN(C)CCCOc1ccc2c(NCCc3cnc(NC(=O)Nc4cccc(Cl)c4)s3)ncnc2c1` [BPR1K871, 1-(3-Chlorophenyl)-3-(5-(2-((7-(3-(dimethylamino)propoxy)quinazolin-4-yl)amino)ethyl)thiazol-2-yl)urea], the entries for the “microsomal stability, remaining at 30 min” value in data set [1] and in data set [7] were above 30% and above 80%, respectively. Also, the remaining binding at 1 µM in data set [2] is below 4%; in [9], 3.3%; in data set [10], 0.2%; in data set [12] it was below 0.5%. Also, the hERG inhibition in data set [3] worked out at 66%. Further, in data set [4] (setting [14]), the AUC(0-inf) (commonly the area under the concentration-time curve extrapolated to infinity) turned out to be 1460 ng·h/mL. Also, in [4] (setting [14]), the clearance (as a rule, a measure of how efficiently the substance is removed, as volume per time) came to 60.4 mL/min/kg. Further, in data set [4] (setting [14]), the half-life (as a rule, the time in which the quantity being followed falls by half) was 23.5 h. In addition, the Vd in data set [4] (male, Sprague-Dawley, plasma, iv, 5 mg/kg, read-out: Vss) turned out to be 34.2 L/kg. Also, the oral bioavailability entry in data set [4] is listed as “without oral bioavailability”. Moreover, the “AUC (0-∞)” value in data set [4] (po, 20 mg/kg) is “not detectable”. The Cmax entry in [4] (po, 20 mg/kg) is listed as “not detectable”. In [4] (po, 20 mg/kg), the Tmax entry is “not detectable”. In data set [4] (po, 20 mg/kg), the t1/2 entry was “not detectable”. Further, the pEC50 (in general, the negative decadic logarithm of the EC50, by convention in mol/L) in data set [5] is around 8.30; in data set [8] it was 7.96; in data set [11], 6.67. Also, the values for the pIC50 in data set [6] and in data set [13] were 7.89 and below 5.40, respectively.
